1 compound from patent US20100273189A1, “NON SEPARATION ASSAYS WITH SELECTIVE SIGNAL INHIBITORS” (BECKMAN COULTER, INC., priority 2009, published 2010) can be followed below.

Experiment [1] deals with cTnI. The experiment is described as follows: Effect of ascorbic acid concentration on cTnI assay using various particles. The format is biochemical. Conditions: ascorbic acid 150 μM to 9.4 μM; Dynal M-280, 6 μm CML, LodeStars; in words. On the procedure: Effect of ascorbic acid on cTnI assay using various particles. The effect of varying the ascorbic acid concentration in the range 150 μM to 9.4 μM on chemiluminescence was investigated for assays employing Dynal M-280, 6 μm CML, and LodeStars particles.

In experiment [2] the target is T1, biotinylated HRP (Armoracia rusticana, UniProt P00433).
T1 construct: purchased Roche Diagnostics, Indianapolis, Ind., USA
T1 sequence (P00433 31-338 limits assumed): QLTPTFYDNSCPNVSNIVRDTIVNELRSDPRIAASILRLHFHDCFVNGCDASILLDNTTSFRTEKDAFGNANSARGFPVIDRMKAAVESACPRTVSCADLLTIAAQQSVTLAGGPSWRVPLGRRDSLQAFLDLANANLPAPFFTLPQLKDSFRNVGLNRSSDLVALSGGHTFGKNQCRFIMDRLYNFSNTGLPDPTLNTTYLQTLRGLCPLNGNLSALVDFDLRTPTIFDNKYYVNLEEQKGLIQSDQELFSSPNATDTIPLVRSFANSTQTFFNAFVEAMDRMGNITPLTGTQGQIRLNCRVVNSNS
The experiment is described as follows: Model system for selection of SSIA (M280 btn-BSA-AK1-streptavidin particles + Btn-HRP:HRP). The format is biochemical.

Values joined by “and” are separate entries in the source; they are usually repeats but may differ in a detail not shown here. Identical values can stand only once.

Consider `O=C1O[C@H]([C@@H](O)CO)C(O)=C1O` [Ascorbic Acid, Ascorbic acid], for which the signal/background result in experiment [1] is recorded as “improved analytical sensitivity by increasing signal/background”. Besides, the S/S0 in experiment [2] (Btn-HRP 0 ng/mL vs 0, SSIA 100 μM) amounted to 1. The B-HRP0 light intensity in experiment [2] (Btn-HRP 0 ng/mL, total HRP 500 ng/mL, SSIA final 100 μM) is 151 and 97. For the same compound, the S1/S0 in experiment [2] (Btn-HRP 1 ng/mL vs 0, SSIA 100 μM) was 6.6 and 7.8. Also, in experiment [2] (Btn-HRP 1 ng/mL, total HRP 500 ng/mL, SSIA final 100 μM), the B-HRP1 light intensity was 995 and 757. Moreover, the S2/S0 in experiment [2] (Btn-HRP 10 ng/mL vs 0, SSIA 100 μM) is 216.2 and 171.6. Moreover, in experiment [2] (Btn-HRP 10 ng/mL, total HRP 500 ng/mL, SSIA final 100 μM), the B-HRP10 light intensity was 32,568 and 16,641. Moreover, the S3/S0 in experiment [2] (Btn-HRP 100 ng/mL vs 0, SSIA 100 μM) was 30222.2 and 38064.9. The B-HRP100 light intensity in experiment [2] (Btn-HRP 100 ng/mL, total HRP 500 ng/mL, SSIA final 100 μM) is 4,553,473 and 3,692,291. In experiment [2] (Btn-HRP 250 ng/mL vs 0, SSIA 100 μM), the S4/S0 is 59176.1 and 62228.3. For the same compound, the B-HRP250 light intensity in experiment [2] (Btn-HRP 250 ng/mL, total HRP 500 ng/mL, SSIA final 100 μM) is 8,915,869 and 6,036,145. In addition, the “effect in the model system / utility as SSIA” value in experiment [2] (SSIA 100 μM, conclusion in words) is on record as “demonstrating utility as SSIA”.
